What was measured:
COLO205 = experiment: Anti-proliferative activity, CellTiter-96 assay, COLO205; format: cell-based; settings: Homo sapiens, COLO 205, COLO205 cells, 72 hours incubation
Protocol: (§1) Antiproliferative Activity
(§2) The anti-proliferative activities of the compounds with formula (I) and formula (II) with respect to four human cancer cell lines (A549, A375, MDA-MB-231, and COLO205) were measured using the CellTiter™-96 assay kit (Promega) following the manufacturer's instructions. In brief, the cells were maintained in DMEM containing 10% FCS and incubated at 37° C. in 5% CO2 atmosphere. Cells were plated at a density of 2000 cells/well of a 96-well plate for 24 h, then treated with different concentrations of the compounds, and incubated for another 72 hours. At the end of the incubation, CellTiter™-96 Aqueous One Solution Reagent (Promega) was added and incubated for another 4.0 hours. Cell viability was determined by measuring absorbance at 490 nm using EMax® microplate reader (Molecular Devices). Data were processed and analyzed using GraphPad Prism version 4.

B-Raf = B-Raf (Homo sapiens (Human), UniProt P15056); experiment: Raf kinase assay (B-Raf), [33P] incorporation into MEK1(K97R); format: biochemical; settings: for inhibition at 1 µM: 1.0 μM compound, read-out: B-Raf inhibition at 1.0 μM
Procedure, shortened: (§3)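 Recombinant C-Raf (2 ng) or B-Raf or B-Raf V600E (5 ng each) phosphorylated 500 ng MEK1(K97R) with 8 μM ATP plus [33P]ATP, pH 7.5, 30 min at 30 °C. Filter-captured 33P counted. IC50 from 3-fold compound dilutions run in duplicate.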

A549 = experiment: Anti-proliferative activity, CellTiter-96 assay, A549; format: cell-based; settings: Homo sapiens, A549 cells, 72 hours incubation
Protocol: as §1, §2

A375 = experiment: Anti-proliferative activity, CellTiter-96 assay, A375; format: cell-based; settings: Homo sapiens, A-375, A375 cells, 72 hours incubation
Protocol: as §1, §2

B-Raf (V600E) = B-Raf (V600E) (Homo sapiens (Human), UniProt P15056, V600E); experiment: Raf kinase assay (B-Raf (V600E)), [33P] incorporation into MEK1(K97R); format: biochemical
Procedure, shortened: as §3

C-Raf = C-Raf (Homo sapiens (Human), UniProt P04049); experiment: Raf kinase assay (C-Raf), [33P] incorporation into MEK1(K97R); format: biochemical
Procedure, shortened: as §3

MDA-MB-231 = experiment: Anti-proliferative activity, CellTiter-96 assay, MDA-MB-231; format: cell-based; settings: Homo sapiens, MDA-MB-231 cells, 72 hours incubation
Protocol: as §1, §2

B-Raf, sequence (P15056 whole entry): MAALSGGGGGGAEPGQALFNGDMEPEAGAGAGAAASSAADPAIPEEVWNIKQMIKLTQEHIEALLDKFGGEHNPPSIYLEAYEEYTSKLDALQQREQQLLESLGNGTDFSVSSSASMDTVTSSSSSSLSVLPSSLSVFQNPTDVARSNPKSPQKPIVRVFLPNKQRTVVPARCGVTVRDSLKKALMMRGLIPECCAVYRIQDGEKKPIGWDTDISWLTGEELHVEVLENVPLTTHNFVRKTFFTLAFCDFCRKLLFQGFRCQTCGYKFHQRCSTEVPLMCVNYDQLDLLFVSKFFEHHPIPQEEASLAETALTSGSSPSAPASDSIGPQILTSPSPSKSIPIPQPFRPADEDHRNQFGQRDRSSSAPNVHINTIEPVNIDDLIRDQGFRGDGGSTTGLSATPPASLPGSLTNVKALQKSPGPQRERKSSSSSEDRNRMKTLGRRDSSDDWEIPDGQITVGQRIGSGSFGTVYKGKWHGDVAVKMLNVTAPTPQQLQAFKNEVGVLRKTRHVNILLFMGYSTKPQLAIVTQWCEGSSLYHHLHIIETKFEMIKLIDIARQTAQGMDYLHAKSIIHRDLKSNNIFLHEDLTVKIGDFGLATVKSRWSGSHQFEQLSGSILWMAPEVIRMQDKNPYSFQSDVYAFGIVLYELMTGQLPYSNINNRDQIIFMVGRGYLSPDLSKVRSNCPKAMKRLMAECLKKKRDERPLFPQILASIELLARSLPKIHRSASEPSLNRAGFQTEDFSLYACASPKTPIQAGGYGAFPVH
C-Raf, sequence (P04049 whole entry): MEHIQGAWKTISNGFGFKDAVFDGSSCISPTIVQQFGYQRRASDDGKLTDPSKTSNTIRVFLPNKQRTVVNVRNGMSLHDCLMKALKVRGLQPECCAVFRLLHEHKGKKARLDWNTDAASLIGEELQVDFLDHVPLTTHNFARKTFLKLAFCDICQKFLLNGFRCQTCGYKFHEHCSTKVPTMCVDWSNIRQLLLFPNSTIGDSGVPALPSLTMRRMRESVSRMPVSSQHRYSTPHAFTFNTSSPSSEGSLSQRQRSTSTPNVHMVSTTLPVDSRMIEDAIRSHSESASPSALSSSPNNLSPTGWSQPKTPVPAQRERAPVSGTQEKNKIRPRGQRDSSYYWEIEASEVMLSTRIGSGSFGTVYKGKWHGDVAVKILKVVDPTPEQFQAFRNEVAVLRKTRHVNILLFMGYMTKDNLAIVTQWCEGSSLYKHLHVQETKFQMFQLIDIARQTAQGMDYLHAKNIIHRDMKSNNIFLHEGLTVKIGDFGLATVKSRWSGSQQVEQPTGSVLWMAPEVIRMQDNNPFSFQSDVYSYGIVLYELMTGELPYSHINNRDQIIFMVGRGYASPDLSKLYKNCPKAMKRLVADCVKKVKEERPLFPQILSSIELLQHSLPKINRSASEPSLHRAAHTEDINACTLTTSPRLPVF
B-Raf (V600E), sequence (P15056 whole entry V600E): as the sequence (P15056 whole entry) above, with V600E counted along it

SMILES | IC50 (COLO205) | IC50 (B-Raf) | inhibition at 1 µM (B-Raf) | IC50 (A549) | IC50 (A375) | IC50 (B-Raf (V600E)) | IC50 (C-Raf) | IC50 (MDA-MB-231)
COc1cc(-c2ccc3ncnc(Nc4cccc5[nH]ncc45)c3c2)ccc1O [Compound 51, 4-(4-(1H-indazol-4-ylamino)quinazolin-6-yl)-2-methoxyphenol] | 7.7 ± 0.3 µM | 121 nM | 86% | 1.6 ± 0.3 µM | 1.4 ± 0.1 µM | 157 nM | 404 nM | 1.6 ± 0.4 µM
COc1cc(-c2ccc3ncnc(Nc4cc(O)ccc4Cl)c3c2)ccc1O [Compound 59, 4-(4-(2-chloro-5-hydroxyphenylamino)quinazolin-6-yl)-2-methoxyphenol] | 4.5 ± 0.6 µM | 36.5 nM | 92.6% | 0.6 ± 0.3 µM | 0.7 ± 0.1 µM | 64.7 nM | 290 nM | 0.9 ± 0.2 µM
COc1cc(-c2ccc3ncnc(Nc4cccc(O)c4Cl)c3c2)ccc1O [Compound 60, 2-chloro-3-(6-(4-hydroxy-3-methoxyphenyl)quinazolin-4-ylamino)phenol] | 6.8 ± 0.16 µM | 39 nM | 91% | 1.3 ± 0.2 µM | 1.3 ± 0.3 µM | 56.5 nM | 152 nM | 1.7 ± 0.5 µM
COc1cc(-c2ccc3ncnc(Nc4cc(O)c(Cl)cc4Cl)c3c2)ccc1O [Compound 61, 2,4-dichloro-5-(6-(4-hydroxy-3-methoxyphenyl)quinazolin-4-ylamino)phenol] | 7.4 ± 1.9 µM | 40.1 nM | 92.6% | 1.6 ± 0.4 µM | 1.9 ± 0.5 µM | 59.9 nM | 284 nM | 2.9 ± 0.4 µM
Oc1ccc(-c2ccc3ncnc(Nc4cccc(O)c4)c3c2)cc1 [Compound 62, 3-(6-(4-hydroxyphenyl)quinazolin-4-ylamino)phenol] | 11.7 ± 2.5 µM | 32.5 nM | 93.8% | 3.7 ± 1.6 µM | 2.6 ± 0.1 µM | 60.1 nM | 335 nM | 7.2 ± 1.4 µM
Oc1cccc(Nc2ncnc3ccc(-c4cccc(O)c4)cc23)c1 [Compound 63, 3-(6-(3-hydroxyphenyl)quinazolin-4-ylamino)phenol] | 7.1 ± 1.3 µM | 27.7 nM | 93.4% | 5.3 ± 1 µM | 2.3 ± 0.6 µM | 51.7 nM | 300 nM | 9.5 ± 1.3 µM
COc1ccc(-c2ccc3ncnc(Nc4cccc(O)c4)c3c2)cc1 [Compound 64, 3-(6-(4-methoxyphenyl)quinazolin-4-ylamino)phenol] | 17.3 ± 1.9 µM | 62.4 nM | 91.9% | 11 ± 3.3 µM | 6 ± 0.3 µM | 105 nM | 1230 nM | 15.6 ± 0.8 µM
COc1cc2ncnc(Nc3cccc(O)c3)c2cc1-c1ccc(N)cc1 [Compound 68, 3-(6-(4-aminophenyl)-7-methoxyquinazolin-4-ylamino)phenol] | 15.7 ± 4.1 µM | 55.8 nM | 83.7% | 7 ± 2.4 µM | 4.9 ± 1.7 µM | 76.6 nM | 860 nM | 11.5 ± 3.8 µM
COc1cccc(-c2ccc3ncnc(Nc4cccc5[nH]ncc45)c3c2)c1F [Compound 74, 6-(2-fluoro-3-methoxyphenyl)-N-(1H-indazol-4-yl)quinazolin-4-amine] | > 50 µM | 114 nM | 91.2% | > 50 µM | > 50 µM | 139 nM | 751 nM | > 50 µM
COc1ccc(-c2ccc3ncnc(Nc4cccc5[nH]ncc45)c3c2)cc1F [Compound 75, 6-(3-fluoro-4-methoxyphenyl)-N-(1H-indazol-4-yl)quinazolin-4-amine] | 18.5 ± 1.1 µM | 157 nM | 85% | 9.6 ± 1.2 µM | 11.1 ± 0.8 µM | 221 nM | 672 nM | 11.6 ± 1.7 µM
COc1cc(-c2ccc3ncnc(Nc4cccc5[nH]ncc45)c3c2)ccc1F [Compound 84, 6-(4-fluoro-3-methoxyphenyl)-N-(1H-indazol-4-yl)quinazolin-4-amine] | 11.5 ± 1.3 µM | 172 nM | 83.1% | 8.9 ± 1.3 µM | 11.5 ± 1.9 µM | 195 nM | 757 nM | 14.8 ± 0.5 µM
Fc1ccc(-c2ccc3ncnc(Nc4cccc5[nH]ncc45)c3c2)cc1F [Compound 85, 6-(3,4-difluorophenyl)-N-(1H-indazol-4-yl)quinazolin-4-amine] | 15.9 ± 4.1 µM | 174 nM | 83% | 14.2 ± 0.8 µM | 11.4 ± 3 µM | 209 nM | 495 nM | 23.2 ± 2 µM
c1cc(Nc2ncnc3ccc(-c4ccc5c(c4)OCO5)cc23)c2cn[nH]c2c1 [Compound 96, 6-(benzo[d][1,3]dioxol-5-yl)-N-(1H-indazol-4-yl)quinazolin-4-amine] | 13 ± 2.4 µM | 141 nM | 86.1% | 14.2 ± 2.4 µM | 7.7 ± 0.4 µM | 161 nM | 568 nM | 12.6 ± 1.8 µM
NC(=O)c1cccc(-c2ccc3ncnc(Nc4cccc5[nH]ncc45)c3c2)c1 [Compound 97, 3-(4-(1H-indazol-4-ylamino)quinazolin-6-yl)benzamide] | 12.7 ± 2.1 µM | 112 nM | 86.6% | > 50 µM | 24.5 ± 7.1 µM | 151 nM | 584 nM | 12.7 ± 2 µM
COc1ccc(-c2ccc3ncnc(Nc4cccc5[nH]ncc45)c3c2)cc1C=O [Compound 98, 5-(4-(1H-indazol-4-ylamino)quinazolin-6-yl)-2-methoxybenzaldehyde] | 9.6 ± 1.6 µM | 73.9 nM | 92.5% | 12.7 ± 5.3 µM | 7.2 ± 0.6 µM | 105 nM | 338 nM | 9.6 ± 1.6 µM
COc1cc(-c2ccc3nccc(Nc4cccc(O)c4)c3c2)ccc1O [Compound 100, 4-(4-(3-hydroxyphenylamino)quinolin-6-yl)-2-methoxyphenol] | 5.2 ± 0.2 µM | 21 nM | 95.8% | 1.78 ± 0.2 µM | 1.4 ± 0.4 µM | 23 nM | 136 nM | 5.5 ± 0.5 µM
COc1cc(-c2ccc3nccc(Nc4cc(O)ccc4F)c3c2)ccc1O [Compound 101, 4-(4-(2-fluoro-5-hydroxyphenylamino)quinolin-6-yl)-2-methoxyphenol] | 21.1 ± 3.8 µM | 18.1 nM | 97.1% | 6.7 ± 0.1 µM | 2.3 ± 0.3 µM | 20.9 nM | 96.1 nM | 21.1 ± 3.8 µM
N#Cc1cccc(-c2ccc3ncnc(Nc4cccc5[nH]ncc45)c3c2)c1 [Compound 102, 3-(4-(1H-indazol-4-ylamino)quinazolin-6-yl)benzonitrile] | > 50 µM | 134 nM | 87% | > 50 µM | > 50 µM | 199 nM | 294 nM | > 50 µM
COc1cc(-c2ccc3nccc(Nc4cccc5[nH]ncc45)c3c2)ccc1O [Compound 103, 4-(4-(1H-indazol-4-ylamino)quinolin-6-yl)-2-methoxyphenol] | 8.9 µM | 164 nM | 85.2% | 3.2 µM | 6.6 µM | 211 nM | 354 nM | 4 ± 0.2 µM
CCCS(=O)(=O)Nc1cccc(-c2ccc3ncnc(Nc4cccc5[nH]ncc45)c3c2)c1 [Compound 109, N-(3-(4-(1H-indazol-4-ylamino)quinazolin-6-yl)phenyl)propane-1-sulfonamide] | 13.6 ± 1.5 µM | 126 nM | 85.1% | 16.9 ± 0.6 µM | 14.2 ± 1 µM | 164 nM | 521 nM | 10.1 ± 1.1 µM
COc1cccc(-c2ccc3nccc(Nc4cccc5[nH]ncc45)c3c2)c1F [Compound 111, 6-(2-fluoro-3-methoxyphenyl)-N-(1H-indazol-4-yl)quinolin-4-amine] | 32.3 ± 8.5 µM | 83.4 nM | 89.1% | 25.1 ± 7.1 µM | 36.3 ± 1.7 µM | 99.9 nM | 290 nM | 26.5 ± 7.3 µM
N#Cc1cccc(-c2ccc3nccc(Nc4cccc5[nH]ncc45)c3c2)c1 [Compound 114, 3-(4-(1H-indazol-4-ylamino)quinolin-6-yl)benzonitrile] | 2.6 ± 0.4 µM | 99.2 nM | 82.3% | 4.8 ± 1.6 µM | 6.3 ± 0.7 µM | 123 nM | 287 nM | 6.2 ± 0.6 µM

Source: patent US8785459B2, “Quinazoline compounds as kinase inhibitors” (Development Center for Biotechnology, priority 2011, dated 2014)
